Results: PMC2760094 (Journal of medicinal chemistry, 2009)

How the values were obtained:
[1] = test system: Melanoma (A 375, B16-F1) and Prostate Cancer Cells (DU145, PC-3, LNCaP, PPC-1); assay: Antiproliferative activity over melanoma and prostate cancer cell lines; type: cell-based, human and mouse
CCRF-CEM (Leukemia) = assay: NCI-60 human tumor cell line screen, CCRF-CEM; type: cell-based; settings: read-out: IC50 NCI-60, CCRF-CEM, lowest of the NCI-60 range
DU 145 cells = assay: SRB cytotoxicity assay, DU 145 prostate cancer; type: cell-based, human; settings: read-out: IC50 ± SEM (μM) DU 145, Table 2, 96 h
LNCaP cells = assay: SRB cytotoxicity assay, LNCaP prostate cancer; type: cell-based, human; settings: read-out: IC50 ± SEM (μM) LNCaP, Table 2, 96 h
A375 cells = assay: SRB cytotoxicity assay, A375 melanoma; type: cell-based, human; settings: read-out: IC50 ± SEM (μM) A375, Table 2, 48 h
B16-F1 cells = assay: SRB cytotoxicity assay, B16-F1 melanoma; type: cell-based, mouse; settings: read-out: IC50 ± SEM (μM) B16-F1, Table 2, 48 h
PPC-1 cells = assay: SRB cytotoxicity assay, PPC-1 prostate cancer; type: cell-based, human; settings: read-out: IC50 ± SEM (μM) PPC-1, Table 2, 96 h
Water solubility = type: physicochemical
Cell cycle progression = type: cell-based; settings: unpublished data

Molecule	antiproliferative activity (in words) [1]	other results
COc1cc(C(=O)c2csc(-c3ccc(C#N)cc3)n2)cc(OC)c1OC [8q, 4-[4-(3,4,5-Trimethoxybenzoyl)-thiazol-2-yl]-benzonitrile]	comparable antiproliferative activity	–
COc1ccccc1C(=O)c1csc(-c2ccccc2)n1 [8d, (2-Methoxyphenyl)(2-phenylthiazol-4-yl)-methanone]	weak activity against a certain cell lines	–
COc1cc(NC(=O)[C@@H]2CSC(c3cc(OC)c(OC)c(OC)c3)N2)cc(OC)c1OC (mixture of isomers) [2b, (2RS, 4R)-N,2-bis(3,4,5-trimethoxyphenyl)thiazolidine-4-carboxamide]	the potency against both cancer cell lines was lost	–
COc1cc(C(=O)c2csc(-c3ccc([N+](=O)[O-])cc3)n2)cc(OC)c1OC [8p, [2-(4-Nitrophenyl)-thiazol-4-yl]-(3,4,5-trimethoxyphenyl)-methanone]	comparable antiproliferative activity	–
O=C(c1ccccn1)c1csc(-c2ccccc2)n1 [8i, (2-Phenylthiazol-4-yl)-(pyridin-2-yl)-methanone]	total loss of the anti-cancer activity	–
(2RS, 4R)-2-phenyl-thiazolidine-4-carboxylic acid hexadecylamide [ATCAA-1]	–	IC50 (CCRF-CEM (Leukemia)): 124 nM; IC50 (DU 145 cells): 1.7 ± 0.1 µM; IC50 (LNCaP cells): 1 ± 0.1 µM; IC50 (A375 cells): 2.1 ± 0.2 µM; IC50 (B16-F1 cells): 2.2 ± 0.3 µM; IC50 (PPC-1 cells): 0.4 ± 0.1 µM
COc1cc(C(=O)c2cscn2)cc(OC)c1OC [compound 10, Thiazol-4-yl-(3,4,5-trimethoxy-phenyl)-methanone]	total loss of activity	–
O=C(c1cc(O)c(O)c(O)c1)c1csc(-c2ccccc2)n1 [compound 11, (2-Phenyl-thiazol-4-yl)-(3,4,5-trihydroxy-phenyl)-methanone]	complete loss of antiproliferative activity	water solubility (in words) (Water solubility): water soluble
COc1cc(C(=O)c2csc(-c3ccccc3)n2)cc(OC)c1OC [8f, (2-Phenyl-thiazol-4-yl)-(3,4,5-trimethoxy-phenyl)-methanone]	–	cell cycle effect (in words) (Cell cycle progression): significant increase in G2/M phase arrest
COc1ccc(-c2nc(C(=O)c3cc(OC)c(OC)c(OC)c3)cs2)cc1OC [8o, [2-(3,4-Dimethoxyphenyl)-thiazol-4-yl]-(3,4,5-trimethoxyphenyl)-methanone]	comparable antiproliferative activity	–
COc1cc(C(=O)c2csc(-c3ccc(C(F)(F)F)cc3)n2)cc(OC)c1OC [8t, (2-(4-(Trifluoromethyl)-phenyl)-thiazol-4-yl)(3,4,5-trimethoxyphenyl)-methanone]	comparable antiproliferative activity	–
COc1cc(NC(=O)[C@@H]2CSC(c3ccccc3)N2)cc(OC)c1OC (mixture of isomers) [2a, (2RS, 4R)-2-Phenyl-N-(3,4,5-trimethoxyphenyl)thiazolidine-4-carboxamide]	the potency against both cancer cell lines was lost	–
COC(=O)c1ccc(-c2nc(C(=O)c3cc(OC)c(OC)c(OC)c3)cs2)cc1 [8s, Methyl-4-[4-(3,4,5-trimethoxybenzoyl)-thiazol-2-yl]-benzoate]	total loss of potency	–
COc1cc(NC(=O)C2CSC(c3ccccc3)=N2)cc(OC)c1OC (stereo in doubt) [4b, (4R)-2-Phenyl-N-(3,4,5-trimethoxyphenyl)-4,5-dihydrothiazole-4-carboxamide]	–	IC50 ([1]; read-out: IC50 over melanoma and prostate cancer cell lines): 3400 to 38300 nM
COc1cc(OC)cc(C(=O)c2csc(-c3ccccc3)n2)c1 [8g, (3,5-Dimethoxyphenyl)(2-phenylthiazol-4-yl)-methanone]	–	fold lower average cytotoxicity than 8f ([1]; against six different cell lines, relative to 8f): 6 fold
COc1cc(NC(=O)c2csc(-c3ccccc3)n2)cc(OC)c1OC [compound 5, 2-Phenyl-N-(3,4,5-trimethoxyphenyl)thiazole-4-carboxamide]	did not show any cytotoxicity against either cancer cell line tested	–
COc1cc(C(=O)c2csc(-c3ccc(C(=O)O)cc3)n2)cc(OC)c1OC [8r, 4-[4-(3,4,5-Trimethoxybenzoyl)-thiazol-2-yl]-benzoic acid]	total loss of the anti-cancer activity	–
COc1cc(C(=O)c2csc(-c3ncccn3)n2)cc(OC)c1OC [8y, [2-(Pyrimidin-2-yl)-thiazol-4-yl]-(3,4,5-trimethoxyphenyl)-methanone]	kept partial activity against both cancer cells	–
